Results published in ChEMBL document CHEMBL1201862, “PubChem BioAssay data set” (2004).
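In this assay, cells in 96-well plates receive the compound at five concentrations for 48 hours. Endpoints are linearly interpolated between the surrounding concentrations. GI50 is the concentration that inhibits growth by half.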 Activity calls are given as the source filed them. No stated cut-off is given here; in the data, active = GI50 up to about 1.1 µM and inactive = higher.

Tests used:
Assay in all cases: NCI tumour cell line growth inhibition, 48 h
M14 = system: M14
HCT-15 = system: HCT-15
SF-539 = system: SF-539
Malme-3M = system: Malme-3M
OVCAR-4 = system: OVCAR-4
RXF 393 = system: RXF 393
MDA-MB-231 = system: MDA-MB-231
DU-145 = system: DU-145
786-0 = system: 786-0
CCRF-CEM = system: CCRF-CEM
OVCAR-3 = system: OVCAR-3
UACC-257 = system: UACC-257
SK-MEL-5 = system: SK-MEL-5
SNB-75 = system: SNB-75
LOX IMVI = system: LOX IMVI
HT-29 = system: HT-29
EKVX = system: EKVX
SK-MEL-2 = system: SK-MEL-2
SF-268 = system: SF-268
A549 = system: A549
KM12 = system: KM12
UACC-62 = system: UACC-62
NCI-H23 = system: NCI-H23
HOP-92 = system: HOP-92
U-251 = system: U-251
SN12C = system: SN12C
ACHN = system: ACHN
SNB-19 = system: SNB-19
BT-549 = system: BT-549
A498 = system: A498
SF-295 = system: SF-295
T47D = system: T47D
OVCAR-8 = system: OVCAR-8
MDA-N = system: MDA-N
HL-60 = system: HL-60
MOLT-4 = system: MOLT-4
NCI-H460 = system: NCI-H460
SW-620 = system: SW-620
SK-OV-3 = system: SK-OV-3
UO-31 = system: UO-31
MCF7 = system: MCF7
HCC 2998 = system: HCC 2998
NCI-H226 = system: NCI-H226
NCI-H522 = system: NCI-H522
SK-MEL-28 = system: SK-MEL-28
MDA-MB-435 = system: MDA-MB-435
PC-3 = system: PC-3
HOP-62 = system: HOP-62
CAKI-1 = system: CAKI-1
SR = system: SR
OVCAR-5 = system: OVCAR-5
TK-10 = system: TK-10
HCT-116 = system: HCT-116
K562 = system: K562
NCI/ADR-RES = system: NCI/ADR-RES
COLO 205 = system: COLO 205
Hs-578T = system: Hs-578T

CSC(=NC1=NC(C(F)(F)F)(C(F)(F)F)N=C(c2ccccc2)O1)SC
GI50 (M14): 19 µM (inactive)
GI50 (HCT-15): 4.88 µM
GI50 (SF-539): 29.2 µM (inactive)
GI50 (Malme-3M): 16.3 µM (inactive)
GI50 (OVCAR-4): 10.3 µM (inactive)
GI50 (RXF 393): 5.77 µM (inactive)
GI50 (MDA-MB-231): 20.3 µM (inactive)
GI50 (DU-145): 6.9 µM (inactive)
GI50 (786-0): 16.4 µM (inactive)
GI50 (CCRF-CEM): 6.92 µM (inactive)
GI50 (OVCAR-3): 7.46 µM (inactive)
GI50 (UACC-257): 22 µM (inactive)
GI50 (SK-MEL-5): 16.1 µM (inactive)
GI50 (SNB-75): 3.15 µM (inactive)
GI50 (LOX IMVI): 5.75 µM (inactive)
GI50 (HT-29): 16.4 µM (inactive)
GI50 (EKVX): 9.27 µM (inactive)
GI50 (SK-MEL-2): 16 µM (inactive)
GI50 (SF-268): 5.07 µM (inactive)
GI50 (A549): 10.5 µM (inactive)
GI50 (KM12): 4.91 µM (inactive)
GI50 (UACC-62): 20 µM (inactive)
GI50 (NCI-H23): 7.31 µM (inactive)
GI50 (HOP-92): 7.8 µM (inactive)
GI50 (U-251): 4.12 µM (inactive)
GI50 (SN12C): 17.1 µM (inactive)
GI50 (ACHN): 3.53 µM (inactive)
GI50 (SNB-19): 5.22 µM (inactive)
GI50 (BT-549): 10.8 µM (inactive)
GI50 (A498): 17.7 µM (inactive)
GI50 (SF-295): 7.13 µM (inactive)
GI50 (T47D): 3.1 µM (inactive)
GI50 (OVCAR-8): 5.98 µM (inactive)
GI50 (MDA-N): 17.3 µM (inactive)
GI50 (HL-60): 30.9 µM (inactive)
GI50 (MOLT-4): 6.07 µM (inactive)
GI50 (NCI-H460): 12.2 µM (inactive)
GI50 (SW-620): 9.38 µM (inactive)
GI50 (SK-OV-3): 16.4 µM (inactive)
GI50 (UO-31): 24 µM (inactive)
GI50 (MCF7): 14.8 µM (inactive)
GI50 (HCC 2998): 12.5 µM (inactive)
GI50 (NCI-H226): 26.9 µM (inactive)
GI50 (NCI-H522): 3.1 µM (inactive)
GI50 (SK-MEL-28): 38.7 µM (inactive)
GI50 (MDA-MB-435): 17.5 µM (inactive)
GI50 (PC-3): 5.14 µM (inactive)
GI50 (HOP-62): 9.1 µM (inactive)
GI50 (CAKI-1): 4.49 µM (inactive)
GI50 (SR): 10.7 µM (inactive)
GI50 (OVCAR-5): 26.4 µM (inactive)
GI50 (TK-10): 7.93 µM (inactive)
GI50 (HCT-116): 4.01 µM (inactive)
GI50 (K562): 6.1 µM (inactive)
GI50 (NCI/ADR-RES): 5.31 µM (inactive)
GI50 (COLO 205): 14.6 µM (inactive)
GI50 (Hs-578T): 14.2 µM (inactive)
